{"source": "patent US8173682B2", "about": "“Substituted pyridones as inhibitors of poly(ADP-ribose) polymerase (PARP)” (Aventis Pharmaceuticals Inc., priority 2004, dated 2012)", "note": "Counter-ions that a name gives are not always drawn."}
{"biological_target": "T1, recombinant human PARP (PARP1) (Homo sapiens, UniProt P09874)", "T1 construct": "Full length human PARP (PARP1) is assembled from PCR fragments; His6 tag with TEV site, from the pFastBac-HTb vector (own knowledge of the vector); made in house; host or cells: insect cells, baculovirus (Bac-to-Bac, Gibco-BRL)", "T1 sequence (P09874 whole entry, the tested form may be a part)": "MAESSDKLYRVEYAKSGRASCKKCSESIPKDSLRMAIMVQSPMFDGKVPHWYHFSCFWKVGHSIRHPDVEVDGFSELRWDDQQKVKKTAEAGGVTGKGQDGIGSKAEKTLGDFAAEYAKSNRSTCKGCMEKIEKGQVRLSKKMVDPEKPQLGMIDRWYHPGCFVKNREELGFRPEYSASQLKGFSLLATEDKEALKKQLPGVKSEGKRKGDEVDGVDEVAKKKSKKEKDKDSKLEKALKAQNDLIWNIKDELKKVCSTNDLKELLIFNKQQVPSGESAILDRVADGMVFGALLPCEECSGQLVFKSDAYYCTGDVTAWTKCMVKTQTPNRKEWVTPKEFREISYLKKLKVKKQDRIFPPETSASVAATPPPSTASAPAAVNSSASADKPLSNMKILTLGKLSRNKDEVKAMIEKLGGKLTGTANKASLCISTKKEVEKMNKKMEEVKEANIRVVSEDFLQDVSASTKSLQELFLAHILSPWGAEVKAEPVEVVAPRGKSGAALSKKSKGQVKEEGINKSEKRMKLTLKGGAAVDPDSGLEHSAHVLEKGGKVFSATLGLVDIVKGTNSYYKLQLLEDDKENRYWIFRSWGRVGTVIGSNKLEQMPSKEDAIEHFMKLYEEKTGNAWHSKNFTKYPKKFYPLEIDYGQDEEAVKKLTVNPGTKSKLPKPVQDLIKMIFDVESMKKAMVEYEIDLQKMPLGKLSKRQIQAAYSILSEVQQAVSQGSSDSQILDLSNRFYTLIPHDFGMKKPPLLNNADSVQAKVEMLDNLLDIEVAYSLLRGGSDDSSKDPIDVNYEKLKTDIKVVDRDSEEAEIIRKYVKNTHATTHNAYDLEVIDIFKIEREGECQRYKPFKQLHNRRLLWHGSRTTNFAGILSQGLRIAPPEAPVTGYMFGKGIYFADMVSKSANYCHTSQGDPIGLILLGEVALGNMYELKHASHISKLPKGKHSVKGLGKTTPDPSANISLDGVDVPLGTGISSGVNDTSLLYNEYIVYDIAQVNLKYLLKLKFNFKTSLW", "experiment": "PARP enzyme assay, Method A (radioactivity or 'ELISA' enzyme assay with partially purified enzyme)", "type": "biochemical", "settings": "recombinant human PARP preparation, radioactive or ELISA enzyme assay", "description": "Two different methods are employed in determining the activity of the compounds of this invention in inhibiting the activity of PARP enzyme, designated as Method A and Method B respectively as set forth below.\nMethod A: Cloning and Expression, and Partial Purification of Recombinant Human PARP:\nFull length human PARP (PARP1) is assembled from PCR fragments of a clone from a human brain cDNA library and two Incyte clones. The PARP gene (3046 bp) is sub-cloned into pFastBac-HTb vector to give PARP-pFastBac-HTb and the sequence of this clone is verified. PARP-pFastBac-HTb is expressed to obtain protein using the Bac-to-Bac expression protocol from Gibco-BRL. The recombinant virus generated is used to scale up the material for purification.\nCell pellets from cell broth of cells expressing PARP are treated with a cocktail of protease inhibitors and lysed by 4 freeze-thaw cycles. The material is suspended in 10 mM HEPES/0.1M NaCl/pH 7.2, stirred, and then centrifuged. A 40%-70% ammonium sulfate cut of protein pellet is obtained from the supernatant. The pellet is solubilized in 10 mM HEPES/pH 7.2 and centrifuged. The supernatant buffer is exchanged to 10 mM HEPES/pH 7.2/0.1M NaCl/25% glycerol by dialysis or with a desalting column. The enzyme preparation is stored at −20° C. until use.\nThe compounds of this invention are then tested with this enzyme preparation using either the radioactive enzyme assay or by the “ELISA” enzyme assay as set forth below.\nRadioactivity Enzyme Assay:\nIncorporation of radioactivity from labeled NAD into acid-precipitated protein is measured. The reaction mixture (volume 100 μL or 50 μL, in a test-tube or 96-well plate) contained 100 μg/mL calf thymus DNA (sonicated), 100 μg/mL histones, 100 mM Tris (pH 8.0), 1.0 mM DTT, 10 mM MgCl2, NAD (200 μM, 0.65 microcurie/mL), and varying amounts of enzyme. The reaction was incubated for 10 min at 37° C. or at room temperature for 60 min. The reaction was stopped and protein precipitated by addition of ice-cold trichloroacetic acid (TCA; 10% or 20% aqueous w/v). After brief storage in ice or at 4° C. for 2 hrs, the reaction mixture is filtered under vacuum through a glass fiber filter (2.5 cm disc, or 96-well filter plate). After washing with TCA and ethanol, the filter is dried and counted for tritium CPM after addition of scintillation fluid.\nIncorporation of biotin-NAD into histone coated on plate is measured. A 96-well protein-binding EIA plate is coated with histone and blocked with bovine serum albumin. The reaction mixture (50 μL) contained DNA, buffer, enzyme, (test compound), and 250 μM of NAD and 5 μL of biotin-NAD (Trevigen). After reaction at room temperature the wells are washed and treated with Extravidin (Sigma). After incubation and washing color is developed with the peroxidase substrate TMB (Sigma). The TMB reaction is quenched with 2M sulfuric acid and the absorbance at 450 nm is read.", "units": {"IC50": "µM"}}
{"smiles": "CCc1cc(-c2ccc(CNCc3ccccc3Cl)s2)c(C)[nH]c1=O", "note": "[Example 188, 5-{5-[(2-Chlorobenzylamino)methyl]thiophen-2-yl}-3-ethyl-6-methyl-1H-pyridin-2-one hydrochloride]", "IC50": 0.84}
{"smiles": "CCc1cc(-c2ccc(CNC3CCN(CC4CCCCC4)CC3)s2)c(C)[nH]c1=O", "note": "[Example 132, 5-{5-[(1-Cyclohexylmethyl-piperidin-4-ylamino)-methyl]thiophen-2-yl}-3-ethyl-6-methyl-1H-pyridin-2-one dihydrochloride]", "IC50": 1.3}
{"smiles": "CCc1cc(-c2ccc(CNCc3nccn3C)s2)c(C)[nH]c1=O", "note": "[Example 161, 3-Ethyl-6-methyl-5-(5-{[(1-methyl-1H-imidazol-2-yl)methyl)amino]methyl}-thiophen-2-yl)-1H-pyridin-2-one dihydrochloride]", "IC50": 1.3}
{"smiles": "CCc1cc(-c2ccc(CNc3cc(C(=O)OC)n(C)c3)s2)c(C)[nH]c1=O", "note": "[Example 130, 4-{[5-(5-Ethyl-2-methyl-6-oxo-1,6-dihydro-pyridin-3-yl)-thiophen-2-ylmethyl]-amino}-1-methyl-1H-pyrrole-2-carboxylic acid methyl ester dihydrochloride]", "IC50": 1.2}
{"smiles": "CCc1cc(-c2ccc(CNCc3ccc(Cl)cc3)s2)c(C)[nH]c1=O", "note": "[Example 168, 5-{5-[(4-chlorobenzylamino)methyl]thiophen-2-y}]-3-ethyl-6-methyl-1H-pyridin-2-one hydrochloride]", "IC50": 0.4}
{"smiles": "CCc1cc(-c2ccc(CNCCO)s2)c(C)[nH]c1=O", "note": "[Example 128, 3-Ethyl-5-{5-[(2-hydroxy-ethylamino)-methyl]thiophen-2-yl}-6-methyl-1H-pyridin-2-one hydrochloride]", "IC50": 0.46}
{"smiles": "CCc1cc(-c2ccc(S(=O)(=O)NCCc3cccnc3)o2)c(C)[nH]c1=O", "note": "[Example 48, 5-(5-Ethyl-2-methyl-6-oxo-1,6-dihydropyridin-3-yl)furan-2-sulfonic acid (2-pyridin-3-yl)ethylamide hydrochloride]", "IC50": 0.36}
{"smiles": "CCc1cc(-n2ccnn2)c(C)[nH]c1=O", "note": "[Example 13, 3-Ethyl-6-methyl-5-(1,2,3-triazol-1-yl)-1H-pyridin-2-one]", "IC50": 2.1}
{"smiles": "CCc1cc(-c2ccc(S(=O)(=O)NCC(O)c3ccccc3)s2)c(C)[nH]c1=O", "note": "(centres unmarked) [Example 114, 5-(5-Ethyl-2-methyl-6-oxo-1,6-dihydropyridin-3-yl)thiophene-2-sulfonic acid (2-hydroxy-2-phenylethyl)amide]", "IC50": 0.37}
{"smiles": "CCc1cc(-c2ccc(CNC3CCCCC3)s2)c(C)[nH]c1=O", "note": "[Example 190, 5-(5-Cyclohexylaminomethylthiophen-2-yl)-3-ethyl-6-methyl-1H-pyridin-2-one hydrochloride]", "IC50": 0.54}
{"smiles": "CCc1cc(-c2ccc(CNC3CCN(Cc4ccccc4)CC3)s2)c(C)[nH]c1=O", "note": "[Example 151, 5-{5-[(1-Benzyl-piperidin-4-ylamino)-methyl]thiophen-2-yl}-3-ethyl-6-methyl-1H-pyridin-2-one dihydrochloride]", "IC50": 0.92}
{"smiles": "CCc1cc(-c2ccc(CN3CCC4(CC3)OCCO4)s2)c(C)[nH]c1=O", "note": "[Example 149, 5-[5-(1,4-Dioxa-8-aza-spiro[4,5]dec-8-ylmethy)-thiophen-2-yl)-3-ethyl-6-methyl-1H-pyridin-2-one hydrochloride]", "IC50": 0.79}
{"smiles": "CCc1cc(-c2ccc(S(=O)(=O)N3CCN(CCOCCO)CC3)s2)c(C)[nH]c1=O", "note": "[Example 99, 3-Ethyl-5-(5-{4-[2-(2-hydroxy-ethoxy)-ethyl]-piperazine-1-sulfonyl}-thiophen-2-yl)-6-methyl-1H-pyridin-2-one hydrochloride]", "IC50": 1.3}
{"smiles": "CCc1cc(-c2ccc(CNCc3cccc(Cl)c3)s2)c(C)[nH]c1=O", "note": "[Example 164, 5-{5-[(3-Chlorobenzylamino)methyl]thiophen-2-y}]-3-ethyl-6-methyl-1H-pyridin-2-one hydrochloride]", "IC50": 0.69}
{"smiles": "CCc1cc(-c2ccc(CN3CCCC(CO)C3)s2)c(C)[nH]c1=O", "note": "(centres unmarked) [Example 131, 3-Ethyl-5-[5-(3-hydroxymethyl-piperidin-1-ylmethyl)-thiophen-2-yl]-6-methyl-1H-pyridin-2-one hydrochloride]", "IC50": 0.47}
{"smiles": "CCc1cc(-c2ccc(S(=O)(=O)NCCN3CCCCC3)o2)c(C)[nH]c1=O", "note": "[Example 50, 5-(5-Ethyl-2-methyl-6-oxo-1,6-dihydropyridin-3-yl)furan-2-sulfonic acid (2-piperidin-1-yl)ethylamide hydrochloride]", "IC50": 0.27}
{"smiles": "CCc1cc(-c2ccc(CNCc3cccc(OC)c3)s2)c(C)[nH]c1=O", "note": "[Example 167, 5-{5-[(3-Methoxybenzylamino)methyl]thiophen-2-y}]-3-ethyl-6-methyl-1H-pyridin-2-one hydrochloride]", "IC50": 0.55}
{"smiles": "CCc1cc(-c2ccc(S(=O)(=O)NCCCN3CCC(O)C3)s2)c(C)[nH]c1=O", "note": "(centres unmarked) [Example 30, 5-(5-Ethyl-2-methyl-6-oxo-1,6-dihydro-pyridin-3-yl)-thiophene-2-sulfonic acid [3-(3-hydroxy-pyrrolidin-1-yl)-propyl]-amide hydrochloride]", "IC50": 10}
{"smiles": "CCc1cc(-c2ccc(S(=O)(=O)N3CCCC(CO)C3)s2)c(C)[nH]c1=O", "note": "(centres unmarked) [Example 90, 3-Ethyl-5-[5-(3-hydroxymethylpiperidine-1-sulfonyl)thiophen-2-yl]-6-methyl-1H-pyridin-2-one]", "IC50": 0.68}
{"smiles": "CCc1cc(-c2cccc(C#N)c2)c(C)[nH]c1=O", "note": "[Example 1, 3-(5-Ethyl-2-methyl-6-oxo-1,6-dihydropyridin-3-yl)benzonitrile]", "IC50": 0.4}
{"smiles": "CCc1cc(-c2ccc(S(=O)(=O)NC3CCN(Cc4ccncc4)CC3)s2)c(C)[nH]c1=O", "note": "[Example 82, 5-[5-Ethyl-2-methyl-6-oxo-1,6-dihydropyridin-3-yl]thiophene-2-sulfonic acid [1-(pyridin-4-yl)methyl(piperidin-4-yl)]amide dihydrochloride]", "IC50": 0.48}
{"smiles": "CCc1cc(-c2ccc(CNCc3ccc(C)cc3)s2)c(C)[nH]c1=O", "note": "[Example 166, 5-{5-[(4-Methylbenzylamino)methyl]thiophen-2-y}]-3-ethyl-6-methyl-1H-pyridin-2-one hydrochloride]", "IC50": 0.68}
{"smiles": "CCc1cc(-c2ccc(S(=O)(=O)N(C)C3CCN(C)C3)s2)c(C)[nH]c1=O", "note": "(centres unmarked) [Example 81, 5-[5-Ethyl-2-methyl-6-oxo-1,6-dihydropyridin-3-yl]thiophene-2-sulfonic acid methyl (1-methylpyrrolidin-3-yl)amide hydrochloride]", "IC50": 0.54}
{"smiles": "CCc1cc(-c2ccc(S(=O)(=O)NCCN3CCOCC3)o2)c(C)[nH]c1=O", "note": "[Example 47, 5-(5-Ethyl-2-methyl-6-oxo-1,6-dihydropyridin-3-yl)furan-2-sulfonic acid (2-morpholin-4-yl)ethylamide hydrochloride]", "IC50": 0.89}
{"smiles": "CCc1cc(-c2ccc(CNC(=O)CN3CCCC3)s2)c(C)[nH]c1=O", "note": "[Example 176, N-[5-(5-Ethyl-2-methyl-6-oxo-1,6-dihydropyridin-3-yl)thiophen-2-ylmethyl]-2-(pyrrolidin-1-yl)acetamide hydrochloride]", "IC50": 0.28}
{"smiles": "CCc1cc(-c2ccc(S(=O)(=O)N3CCC(O)CC3)s2)c(C)[nH]c1=O", "note": "[Example 87, 3-Ethyl-5-[5-(4-hydroxypiperidine-1-sulfonyl)thiophen-2-yl]-6-methyl-1H-pyridin-2-one]", "IC50": 5.3}
{"smiles": "CCc1cc(-c2ccc(S(=O)(=O)NCCCN3CCCC3)o2)c(C)[nH]c1=O", "note": "[Example 49, 5-(5-Ethyl-2-methyl-6-oxo-1,6-dihydropyridin-3-yl)furan-2-sulfonic Acid (3-pyrrolidin-1-yl)propylamide hydrochloride]", "IC50": 0.18}
{"smiles": "CCc1cc(-c2ccc(S(=O)(=O)NCCNc3ccccc3)s2)c(C)[nH]c1=O", "note": "[Example 32, 5-(5-Ethyl-2-methyl-6-oxo-1,6-dihydropyridin-3-yl)thiophene-2-sulfonic acid 2-phenylaminoethylamide hydrochloride]", "IC50": 2.9}
{"smiles": "CCc1cc(-c2ccc(CNCCC3=CCCCC3)s2)c(C)[nH]c1=O", "note": "[Example 144, 5-{5-[(2-Cyclohex-1-enyl-ethylamino)-methyl]thiophen-2-yl}-3-ethyl-6-methyl-1H-pyridin-2-one hydrochloride]", "IC50": 0.62}
